# Experimental data from patent US6402037B1, “Two-photon upconverting dyes and applications” (The Research Foundation of State University of New York, priority 1995, dated 2002).
# Marks after values point to notes of the source that are not given here.
# Tests used:
# [1] = Decomposition temperature (Td) by DSC thermogram; format: physicochemical; details: DSC under nitrogen
# Method: Decomposition temperature (“Td”) of each dye was measured by differential scanning calorimetry (“DSC”) thermogram using a Shimadzu DSC-50GPC under nitrogen. Elemental: analysis were performed by Atlantic Microlab, Inc., P.O. Box 2288, Norcross, Ga. 30019. Proton NMR spectra, TV/visible absorption spectra, and UV/visible emission spectra were recorded using a Varian Gemini-300 300 MHz spectrometer, a Shimazdu UV-3101 PC spectrophotometer, and a Shimazdu RF5000U spectrofluorophotometer, respectively: TV/visible absorption spectra of dyes prepared in these Examples in DMF, are provided in FIG. 3.
# [2] = Optical characterization of the dye-doped composite glasses; format: physicochemical
# Method: Emission spectra were collected on a Shimadzu RF-5000U Spectrofluorophotometer (90° geometry) having a resolution of ±2 nm. For solution state measurements, a fluorometric quartz cuvette was used. For the composite glass, the emission was obtained from the surface of the glass (90° geometry) due to significant primary absorption. […]
# [3] = Optical characterization of the solution state (ethanol); details: for fluorescence quantum yield: vs Rhodamine-6G
# [4] = Two-photon pumped cavity lasing of dye-doped matrices (1.06 μm pump)
# Method: Two-photon pumped cavity lasing experiments were conducted using a Q-switched Nd-YAG pulsed laser source having a wavelength of 1.06 μm, a pulsewidth of about 10 ns, a spectral width of about 1 cm^−1, an angular divergence of about 1.3 mrad, and a variable repetition rate of 1-10 Hz. A 1 cm-long quartz cuvette filled with dye1 solution in cyclopentanone (do≈8×10^−2 to 4×10^−2M) and a 7 mm-long, dye1 -doped poly(HEMA) rod (do,≈8×10^−3 M), prepared in accordance with Example 12, were used separately for two-photon pumped (“TPP”) lasing observation. The 1.06 μm-pump laser beam was focused on the center of the cuvette or sample rod, and a strong orange-red fluorescence emission was observed when the infrared pump intensity reached several MW/cm^2. Once the pump intensity further increased to a certain threshold level, simultaneous forward and backward highly directional superradiation could be observed from the solution or rod samples. To achieve cavity lasing, two parallel plane dielectrc-coating mirrors were employed to form a cavity. The pump beam, focused through a f-10 cm lens, was coupled into the cavity by normal incidence. The reflectivity was r=10% at 1.06 μm and r=99% at 600 nm for the front mirror (input coupler) and r=10% at 1.06 μm and r=50% at 600 nm for the rear mirror (output coupler). The total cavity length was 7˜8 cm, and the cuvette or sample rod was located at the center of the cavity. […] FIGS. 11A-11C show the emission spectra of the same 7 mm-long, dye1 -doped rod sample under the following different excitation conditions: 532 nm one-photon excited fluorescence emission (FIG. 11A), 1.06 μm two-photon excited fluorescence emission (FIG. 11B), and 1.06 μm pumped cavity lasing (FIG. 11C). Each spectrum was obtained using a grating -spectrograph in conjunction with an optical multi-channel analyzer (OMA-III) system. The difference between FIGS. 11A and 11B can be explained by a volume reabsorption effect of the emission. To obtain these two spectra, the excitation beam was incident on the rod end at a +45° angle, and the fluorescence was measured at a −45° angle. In the case of FIG. 11A, the emission was mainly from a shallow surface layer of the sample because of the very short penetration depth of the 532 nm pump radiation, and therefore, the reabsorption effect within the sample can be neglected. However, for the case of FIG. 11B, the incident infrared beam could pass through the whole rod length without obvious depletion, and, consequently, collected fluorescence signals of different spectral components were propagated within the sample for a considerable distance. […] Cavity lasing occurred at the central region of the two-photon absorption (“TPA”) induced fluorescence band, but the lasing bandwidth (˜8 nm) was much narrower than the ordinary one-photon excited fluorescence band width (˜60 nm) due to the lasing threshold requirement. In addition, a red-shift of the central lasing wavelength was observed as the pump energy increased. This shift may be caused by the local temperature change of the sample rod.
# Compared to the smooth temporal profile of the 10 ns pump pulse, the lasing pulses manifested much shorter rise- and fall-times, i.e. ≦1.5 ns limited by the resolution of the detecting system. […]
# The lasing output/pump input characteristic curve is given in FIG. 13 for the rod cavity lasing. […] However, at this pump level the measured one-pass two-photon absorption in the 7 mm-long rod was only about 23%. […]
# [5] = as above; remark: listed apart in the source
# [6] = TPA induced fluorescence and optical limiting in dye1-doped epoxy; format: physicochemical
# From the text: Dye1, prepared in accordance with Example 6, was dispersed in an optical quality epoxy compound, EPO-TEX301 (Epoxy Technology, Inc., Billerica, Mass.) by dissolving the dye powder in the liquid Part A and Part B of the epoxy. Undoped and dye1-doped epoxies were cast by blade casting techniques. Film thickness was the same (0.3 mm) for both films, and the dopant concentration for the doped film was do=0.003 M.
# A 2 cm-long, dye1-doped epoxy (EPO-TEX301) rod with a concentration of do=0.004M was used for TPA induced fluorescence and optical limiting measurements. An incident near infrared laser beam, having a wavelength of 1.06 μm, a pulsewidth of about 8 ns, a spectral width of about 1 cm^−1, and a repetition rate of 3 Hz, was provided by a Q-switched Nd-YAG pulsed laser source. The incident 1.06 μm radiation on the sample was a quasi-parallel laser beam of about 1 mm size with a nearly uniform transverse intensity distribution. An orange-red fluorescence emission was readily observed by the human eye in a dark room when the 1.06 μm incident beam intensity reached several MW/cm^2. […] Each data point was averaged over 10 laser pulses by using a gated integrator and boxcar averager. The solid line is the best fitted curve based on the square law that TPA processes follow.
# where I(L) is the transmitted beam intensity, Io, is the incident beam intensity, L is the thickness of the sample, and β is the TPA coefficient of the sample medium. In the derivation of Equation (1), it is assumed that the linear attenuation of the medium can be neglected and the beam has a nearly uniform transverse intensity distribution within the medium. Using Equation (1), the value of β can be determined by measuring the transmitted intensity versus the incident intensity for a sample medium with a given L value. Furthermore, the TPA coefficient β (in units of cm/GW) of a given sample is determined by
# Here, No is the molecular density of the dopant (in units of 1 cm^3), σ2 is the molecular TPA coefficient (or cross-section) of the same dopant (in units of cm^4/GW, do is the concentration of the dopant compound in the matrix (in units of M), and finally NA is Avogadro's number. For known β and do, the value of σ2 can be calculated from Equation (2). Another expression for molecular TPA coefficient (or cross-section), used in some reference papers, is
# where hυ is the energy of an incident photon, and σ′2 has units of cm^4/photon/sec.
# The measured transmitted intensity as a function of the incident intensity for the 2 cm-long, dye1-doped epoxy rod is shown in FIG. 9. Two groups of experimental data were obtained in two measurement cycles, and each data point was an average result over 10 laser pulses. In FIG. 9, the solid line is the theoretical curve predicted by Equation (1) using a best fit parameter of β=6 cm/GW, and the dashed line is similarly constructed by assuming that there is no TPA (β=0). Consequently, FIG. 9 evidences the TPA induced optical limiting behavior of dye1 at incident intensity levels of 50-250 MW/cm^2. Using a value of β=6 cm/GW and Equations (2) and (3), the values of molecular TPA cross-section of dye1 were estimated as σ2=2.5×10^−18 cm^4/GW and σ′2=4.7×10^−46 cm^4/photon/sec. These measured values of σ2 and σ2 for dye1 in EPO-TEX301 matrix are 2˜3 orders of magnitude greater than the corresponding values of Rhodamine dyes, as reported by Rapp et al., Chem. Phys. […] The damage threshold of the 2 cm-long, dye1-doped epoxy rod was measured as 250˜300 MW/cm^2.
# [7] = cyclopentanone solution, 0.001 M
# [8] = EPO-TEX301 matrix, 1.06 μm, from β
structure (smiles),measurement,setting,value
"CCN(CCO)c1ccc(/C=C/c2cc[n+](CCO)cc2)cc1.[I-] [ASPI, trans-4-[p-(N-ethyl-N-hydroxyethylamino)styryl]-N-hydroxyethylpyridinium iodide]",Decomposition temperature (Td),[1],270 °C
same,solubility,"Solubility; ethanol, organic solvent or mixture",6.1 mM
same,solubility,Solubility; in PMMA,insolubility
same,solubility,Solubility; in methyl methacrylate monomer,insolubility
same,Florescence FWHM,"[2]; Composite Glass, single dye",45 nm
same,Fluorescence Max.,"[2]; Composite Glass, single dye",586 nm
same,"Florescence FWHM, ASPI emission",[2]; composite glass containing both dyes,41 nm
same,"Fluorescence Max., ASPI emission","[2]; composite glass containing both dyes, reconstructed peak",594 nm
same,fluorescence quantum yield,"[3]; 1.8×10^−6 M, excited at 482 nm",6×10^−3
same,fluorescence quantum yield,"[3]; 2.6×10^−6 M, excited at 509 nm",7×10^−3
same,Quantum Yield,"[3]; Solution State, Table 2",6.5 × 10^−3
same,Absorbance Max.,[3]; ethanol,483 nm
same,Stokes Shift,[3]; ethanol,118 nm
same,molar absorptivity,"[3]; ethanol, at 483 nm",68000 M⁻¹ cm⁻¹
same,Fluorescence Max.,"[3]; ethanol, ASPI 3.1×10^−3 M, Rhodamine-6G 6.5×10^−5 M, excitation 509 nm",600 nm
same,Florescence FWHM,"[3]; ethanol, same concentrations, excitation 509 nm",~38 nm
"CCN(CCO)c1ccc(/C=C/c2cc[n+](C)cc2)cc1.c1ccc([B-](c2ccccc2)(c2ccccc2)c2ccccc2)cc1 [dye1, trans-4-[p-(N-ethyl-N-hydroxyethylamino)styryl]-N-methylpyridinium tetraphenyborate]",absorption bandwidth,[4]; poly(HEMA) 0.008M,80 nm
same,linear absorption peak,[4]; poly(HEMA) 0.008M,485 nm
same,one-photon fluorescence bandwidth,[4]; poly(HEMA) 0.008M,55 nm
same,one-photon fluorescence peak,[4]; poly(HEMA) 0.008M,577 nm
same,molecular TPA cross-section σ2,"[4]; poly(HEMA) rod, 1.06 μm, from nonlinear absorption data",≈ 1.2×10^−46 cm^4-sec
same,Decomposition temperature (Td),[1],264 °C
same,one-photon fluorescence bandwidth,[5]; Vycor glass 0.0015M,60 nm
same,one-photon fluorescence peak,[5]; Vycor glass 0.0015M,575 nm
same,absorption bandwidth,[5]; [7],100^a nm
same,linear absorption peak,[5]; [7],480^a nm
same,one-photon fluorescence bandwidth,[5]; [7],58^a nm
same,one-photon fluorescence peak,[5]; [7],590^a nm
same,one-photon fluorescence bandwidth,[5]; sol-gel glass 0.0015 M,55 nm
same,one-photon fluorescence peak,[5]; sol-gel glass 0.0015 M,568 nm
same,strong one-photon absorption range,"[6]; 0.3 mm epoxy film, 0.003 M",350˜560 nm
same,TPA coefficient β (best fit),"[6]; 2 cm EPO-TEX301 rod, 0.004M, 1.06 μm",6 cm/GW
same,TPA cross-section greater than values of Rhodamine dyes,[6]; EPO-TEX301 matrix,2˜3 orders of magnitude
same,molecular TPA cross-section σ2,[6]; [8],2.5×10^−18 cm^4/GW
same,molecular TPA cross-section σ′2,[6]; [8],4.7×10^−46 cm^4/photon/sec
"CN(C)c1ccc(/C=C/c2cc[n+](C)cc2)cc1.c1ccc([B-](c2ccccc2)(c2ccccc2)c2ccccc2)cc1 [dye2, trans-4-[p-(N,N-dimethylamino)styryl]-N-methylpyridinium tetraphenyborate]",Decomposition temperature (Td),[1],266 °C
